One data set in a line: LogP of flubendazole. Type of data set: physicochemical. The source says: (§1) Table 1 Physicochemical Properties of Flubendazole (FLU) | column: Value
The subject of the next data set is Onchocerca volvulus. More on the design: method as in PMID 6130195. The conditions noted are these: after 12 months of follow-up; 5 weekly injections; cited from earlier work.
Data set [1] is described as follows: Solubility in ambient conditions. Type of data set: physicochemical.
A short description of the next data set: pKa of flubendazole. The class given is physicochemical.
Data set [2] is described as follows: Apparent permeability (Papp). Type of data set: in vitro ADME. Conditions: not told, AB.
Description: as §1

Here are results for 1 compound from publication PMC4988473, “Evaluation of Three Amorphous Drug Delivery Technologies to Improve the Oral Absorption of Flubendazole” (Journal of Pharmaceutical Sciences, 2016).

SMILES strings stand for the structures. In brackets after ≈: the same amount, converted by molar mass. Read-outs that look alike come from different tables or passages of the source.

One may read the logP as a log measure of how a compound divides between an organic and an aqueous phase. In general, solubility refers to how much of the substance goes into solution per volume. As a reminder, the pKa is the negative logarithm of the acid dissociation constant. Low values mean a group that gives up its proton readily, high ones a group that holds its proton tightly. For orientation: Papp means the rate of passage across a membrane or cell layer, normalised by area and donor concentration. `COC(=O)Nc1nc2cc(C(=O)c3ccc(F)cc3)ccc2[nH]1` [FLU, flubendazole] returned a logP in “LogP of flubendazole” of 3. Further, the “Activity against Onchocerca volvulus compared with diethylcarbamazine” value with Onchocerca volvulus is recorded as “superior activity”. The solubility in data set [1] (acetone, organic solvent or mixture, read-out: Solubility in acetone) was 180 µg/mL (≈ 0.575 mM); in data set [1] (dichloromethane, organic solvent or mixture, read-out: Solubility in dichloromethane) it was 140 µg/mL (≈ 0.447 mM); in data set [1] (formic acid, organic solvent or mixture, read-out: Solubility in formic acid), 340000 µg/mL (≈ 1090 mM); in data set [1] (methanol, organic solvent or mixture, read-out: Solubility in methanol) it was 110 µg/mL (≈ 0.351 mM); in data set [1] (water, read-out: Solubility in water), 5 µg/mL (≈ 0.016 mM). In addition, the pKa in “pKa of flubendazole” was 9.6; in the data set “pKa of flubendazole” (carbamate group), 3.6. In data set [2], the Papp at 10 μM was found to be 33.8 ×10⁻⁶ cm/s.
